Where “and” joins values, the source holds several entries; their conditions need not be identical. Equal values may be shown once.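 In this assay, cells in 96-well plates receive the compound at five concentrations for 48 hours. Endpoints are linearly interpolated between the surrounding concentrations. At the GI50, growth is halved. The concentration for full growth arrest is given as TGI.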
Legend:
Experiment in all cases: growth of human tumour cells (NCI), 48 h
OVCAR-5 ovarian = test system: OVCAR-5 ovarian
M14 melanoma = test system: M14 melanoma
UO-31 renal = test system: UO-31 renal
HS 578T breast = test system: HS 578T breast
HOP-62 NSCLC = test system: HOP-62 NSCLC
T-47D breast = test system: T-47D breast
MALME-3M melanoma = test system: MALME-3M melanoma
NCI-H460 lung = test system: NCI-H460 lung
EKVX NSCLC = test system: EKVX NSCLC
SF-295 CNS = test system: SF-295 CNS

| Compound | GI50 (OVCAR-5 ovarian) [µM] | TGI (OVCAR-5 ovarian) [µM] | GI50 (M14 melanoma) [µM] | TGI (M14 melanoma) | GI50 (UO-31 renal) [µM] | TGI (UO-31 renal) | GI50 (HS 578T breast) [µM] | TGI (HS 578T breast) | GI50 (HOP-62 NSCLC) [µM] | TGI (HOP-62 NSCLC) [µM] | GI50 (T-47D breast) [µM] | TGI (T-47D breast) [µM] | TGI (MALME-3M melanoma) [µM] | GI50 (NCI-H460 lung) [µM] | TGI (NCI-H460 lung) | GI50 (EKVX NSCLC) [µM] | TGI (EKVX NSCLC) | GI50 (SF-295 CNS) [µM] | TGI (SF-295 CNS) [µM] | GI50 (MALME-3M melanoma) [µM] |
| --- | --- | --- | --- | --- | --- | --- | --- | --- | --- | --- | --- | --- | --- | --- | --- | --- | --- | --- | --- | --- |
| CCCCCCCCCCCCCC[C@@H](O)[C@H]1CC[C@H]([C@H]2CC[C@H]([C@H](O)CCCCCC[C@@H](O)CC3=C[C@H](C)OC3=O)O2)O1 | 4.61 | > 25 | 1.74 | 3.44 µM and > 25 µM | 1.21 | 2.59 µM and > 25 µM | > 25 | 3.15 µM and > 25 µM | 2.74 | > 25 | 2.14 | > 25 | > 25 | 0.0214 | 4.26 µM and > 25 µM | 1.68 | 9.27 µM and > 25 µM | 1.18 | > 25 |  |
| COc1cc2c3c(n(C)c(=O)c2cc1OC)-c1ccc(C#N)cc1C3=O | > 100 | > 100 | > 100 | > 100 µM | > 100 | > 100 µM | > 100 | > 100 µM | 74.1 | > 100 | 91.9 | > 100 | > 100 | > 100 | > 100 µM | > 100 | > 100 µM | 73.7 | > 100 | > 100 |
| COC(=O)CSSCc1ccc([N+](=O)[O-])cc1 |  | 35.6 |  | 46.4 µM |  | 27.9 µM |  | 59.4 µM |  | 42.4 |  | 51.7 | 67.7 |  | > 100 µM |  | 69.2 µM |  | 43 |  |
| CN(Cc1cnc2nc(N)nc(N)c2n1)c1ccc(C(=O)NC(CCC(=O)O)C(=O)O)cc1Br (configuration not stated) | < 0.031 | > 100 | < 0.01 | 5.95 µM | < 0.01 |  | 1.1 | 6.39 µM | < 0.01 |  | 0.113 | > 100 | 3.92 | < 0.01 | 4.9 µM | < 0.01 | 48.3 µM | < 0.01 | 0.201 | < 0.01 |
| COc1ccc(N=N/C(C(=O)C(F)(F)F)=C(\O)c2ccc(Cl)cc2)cc1 | 12.5 | > 100 | 2.84 | 14.9 µM | 8.18 | 47.6 µM | 11.2 | 76.2 µM | 15.5 | 63.4 | 5.98 | 64.9 | 85.6 | 3.77 | 27.7 µM | 9.09 | 22.3 µM | 2.67 | 11.9 | 16.1 |
| CC1=C(Nc2ccc(N3CCN(C)CC3)cc2)C(=O)c2cncnc2C1=O | 3.66 | 16.9 | 14.9 | 32.2 µM | 13.9 | 33.5 µM | 19.5 | 55.1 µM | 19.2 | 60.4 | 1.78 | 4.26 | 21.7 | 3.31 | 11.4 µM | 5.63 | 19.1 µM | 11.9 | 28.1 | 8.96 |
